pIC50, pKd: −log10 of the molar value.
Tests used:
[1] = target: T1, ligand binding domain of ERR-α (aa 183-424) (Homo sapiens, UniProt P11474); assay: ThermoFluor thermal-shift binding affinity screen against ERR-α ligand binding domain; details: 100 μM test compound, 0.1 mg/mL ERR-α, pH 7.6, Kd estimated from melting temperature shift at reference temperature, read-out: TF Kd
T1 construct: His tag (N); thrombin cleavage site (N); made in house; host or cells: E. coli BL21(DE3+)
T1 sequence (P11474 183-423 limits assumed): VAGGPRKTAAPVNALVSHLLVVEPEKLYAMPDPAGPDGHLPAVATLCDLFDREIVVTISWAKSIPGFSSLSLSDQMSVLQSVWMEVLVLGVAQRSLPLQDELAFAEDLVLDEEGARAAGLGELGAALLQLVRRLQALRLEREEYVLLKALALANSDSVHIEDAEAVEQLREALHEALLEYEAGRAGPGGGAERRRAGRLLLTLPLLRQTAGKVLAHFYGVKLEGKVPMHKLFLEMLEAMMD
Protocol: The ligand binding domain of ERR-α (aa 183-424) was subcloned in frame with the N-terminal His tag and the cleavable thrombin site in pET28. The protein was expressed in BL21(DE3^+) following induction with 100 μM IPTG at 16° C. Cells were harvested after 16 hours (h) of induction and lysed in 20 mM Tris pH 7.5, 500 mM NaCl, 5 mM imidazole, 5% glycerol, protease inhibitor cocktail (-EDTA) and 2 mM β-ME. Insoluble material was removed by centrifugation at 40,000×g for 1 hr. Clarified homogenate was applied on a Ni-NTA column and after applying an imidazole gradient the protein was eluted. The protein was further purified on size exclusion chromatography to an apparent homogeneity of 95% as judged by SDS-PAGE chromatography.
Binding affinities of compounds were determined by screening against the ligand binding domain of ERR-α using ThermoFluor® technology (U.S. Pat. No. 6,020,141 and U.S. Pat. No. 6,036,920, and Journal of Biomolecular Screening 6 (6), […], pgs 429-440). Assay plates were prepared by dispensing 2 μL of a protein-dye solution and 2 μL of the test compound in a 384-well plate. The conditions used in the screen were: 0.1 mg/mL ERR-α, 25 mM Na-phosphate buffer at pH 7.6, 200 mM NaCl, 10% glycerol, 16 μM ANS, 2% DMSO and the final concentration of test compound was 100 μM. Finally 1 μL of mineral oil was dispensed on top to prevent evaporation during the high throughput screen (HTS). ThermoFluor® is an HTS assay that measures protein unfolding based on fluorescence detection of the denatured form of the protein. The reporter for the protein unfolding event is the environmentally sensitive dye ANS that is incorporated in the screening buffer. During a typical experiment the 384-well plate is heated at a ramping rate of 1° C./min and the thermal unfolding of the protein is monitored at 1° C. intervals by measuring fluorescence changes detected through a CCD camera. Captured images are integrated and a melting curve is generated that relates fluorescence to fraction of unfolded protein as a function of temperature. For the ERR-α screen, data were collected from 30 to 80° C. at 1° C. intervals and the protein melted under the screening conditions with a characteristic melting temperature, Tm, of 52.1° C. Hits were identified from the screen by measuring an increase in the melting temperature of the protein.
In order to estimate binding affinities, it was taken into account that the oligomeric state of ERR-α, which is a dimer (N2), and that of a single ligand (Lf) can interact per monomer subunit with equal affinity. The melting curve for such a system is described by the following three equilibria: [formula] The first equilibrium describes the denaturation of ERR-α dimers; the second equilibrium describes the dissociation of the first ligand from the single ligand occupied ERR-α dimers (N2L); and the third equilibrium describes the dissociation of the second ligand from the fully occupied ERR-α dimers (N2L2).
Following the derivations of Brandts and Lin (Biochemistry, 29, 6967, 1990) the dissociation constants for the ligands (Kd1^t^m) can be determined at T=Tm for any ligand concentration Lt by solving numerically the conservation of mass equations: [formula] and Ku is in the unfolding equilibrium constant for ERR-α dimers that is calculated from the melting curve of the protein in the absence of ligand as described by Pantoliano et al. (J. Biomolecular Screening, 6, 429, 2001) and Bowie & Sauer (Biochemistry, 28, 7139, 1989).
To compare dissociation constants at a common reference temperature, Tref, the following equation was used: [formula] where • Kd^ref=is the dissociation constant of the ligand at a reference temperature Tref • ΔHb^ref=is the binding enthalpy of the ligand to the protein at a reference temperature Tref. […]

ERR-α = target: T2, ERR-α (Homo sapiens, UniProt P11474); assay: 2-Hybrid cell based luciferase reporter assay (pBIND-Gal4-ERR-α / pACT-SRC2) in HEK293E cells; details: 24 hours compound treatment, firefly luciferase normalized to Renilla, average from three independent experiments
T2 construct: expressed in transfected cells; host or cells: HEK293E
T2 sequence (P11474 1-423): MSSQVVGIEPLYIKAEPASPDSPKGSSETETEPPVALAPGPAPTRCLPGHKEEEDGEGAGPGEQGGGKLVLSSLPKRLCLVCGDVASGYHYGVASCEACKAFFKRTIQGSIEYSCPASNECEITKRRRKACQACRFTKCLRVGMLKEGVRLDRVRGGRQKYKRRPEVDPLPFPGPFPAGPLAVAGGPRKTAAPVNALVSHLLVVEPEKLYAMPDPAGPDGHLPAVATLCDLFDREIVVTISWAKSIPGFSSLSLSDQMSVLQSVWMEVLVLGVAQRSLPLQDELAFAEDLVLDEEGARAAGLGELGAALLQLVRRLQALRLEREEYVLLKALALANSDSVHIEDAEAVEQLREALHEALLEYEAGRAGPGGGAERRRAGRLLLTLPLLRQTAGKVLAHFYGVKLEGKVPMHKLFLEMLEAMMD
Protocol: A cell based reporter assay was also used to determine the functional response of the ERR-α hits. Transfections were performed in HEK293E cells that were maintained in DMEM supplemented in glutamine and 10% FBS. Co-transfections of 4 μg of a luciferase reporter plasmid and 4 μg of each pBIND-Gal4-ERR-α and pACT-SRC2 plasmids per T-75 flask were done using Lipofectamine as per manufacturers instructions. Twenty-four hours post-transfection, the cells were seeded in 96-well plates at density of 50,000 cells per well in assay media (DMEM phenol free, 5% charcoal stripped FBS). The cells were allowed to adhere to the bottom of the wells (approximately 5 hours post-seeding) and the compounds were dosed and the final concentration of DMSO was kept below 0.3%. After 24 hours of compound treatment cells were lysed and treated with the Promega Dual-Glo system. Firefly Luciferase activity was read using a luminescence plate reader, and data were normalized against Renilla luciferase activity. Data were fitted using subroutines available from GraphPad. The reported IC50 values shown in the table below are the average from three independent experiments for the compounds tested.

Row | SMILES | pKd [1] | pIC50 (ERR-α)
1 | N#C/C(=C\c1ccc(Oc2ccc(C(F)(F)F)cc2[N+](=O)[O-])cc1)c1nn(-c2ccccc2)c(N)c1C#N [Example 2, 5-Amino-3-{1-cyano-2-[4-(2-nitro-4-trifluoromethyl-phenoxy)-phenyl]-vinyl}-1-phenyl-1H-pyrazole-4-carbonitrile] | 5.11 | 5.11
2 | N#C/C(=C\c1ccc(Oc2ccccc2)cc1)c1nn(-c2ccccc2)c(N)c1C#N [Example 5, 5-Amino-3-[1-cyano-2-(4-phenoxy-phenyl)-vinyl]-1-phenyl-1H-pyrazole-4-carbonitrile] | 4.59 | 4.59
3 | COc1cc(/C=C(\C#N)c2nn(-c3ccccc3)c(N)c2C#N)ccc1Oc1ccc(C#N)c(C(F)(F)F)c1 [Example 4, 5-Amino-3-{1-cyano-2-[4-(4-cyano-3-trifluoromethyl-phenoxy)-3-methoxy-phenyl]-vinyl}-1-phenyl-1H-pyrazole-4-carbonitrile] | 5.84 | 5.84
4 | COc1cc(/C=C(\C#N)c2nn(-c3ccccc3)c(N)c2C#N)ccc1Oc1ccc(C(F)(F)F)cc1[N+](=O)[O-] [Example 1, 5-Amino-3-{1-cyano-2-[3-methoxy-4-(2-nitro-4-trifluoromethyl-phenoxy)-phenyl]vinyl}-1-phenyl-1H-pyrazole-4-carbonitrile] | 5.22 | 5.22

The remaining lines, values ahead:

Row | pKd [1] | pIC50 (ERR-α) | SMILES
5 | 6.94 | 5.82 | COC(=O)c1ccc(Oc2ccc(/C=C3\SC(=O)NC3=O)cc2OC)cc1C(F)(F)F [Example 15, 4-[4-(2,4-Dioxo-thiazolidin-5-ylidenemethyl)-2-methoxy-phenoxy]-2-trifluoromethyl-benzoic acid methyl ester]
6 | 6.33 | 7.30 | COc1cc(/C=C2\SC(=O)NC2=O)ccc1Oc1ccc(C#N)c(C(F)(F)F)c1 [Example 12, 4-[4-(2,4-Dioxo-thiazolidin-5-ylidenemethyl)-2-methoxy-phenoxy]-2-trifluoromethyl-benzonitrile]
7 | 5.77 | 5.77 | COc1cc(/C=C(\C#N)c2nn(-c3ccccc3)c(N)c2C#N)ccc1Oc1ccc([N+](=O)[O-])c(C(F)(F)F)c1 [Example 3, 5-Amino-3-{1-cyano-2-[3-methoxy-4-(4-nitro-3-trifluoromethyl-phenoxy)-phenyl]-vinyl}-1-phenyl-1H-pyrazole-4-carbonitrile]
8 | 6.33 | 6.85 | COc1cc(/C=C2\SC(N)=NC2=O)ccc1Oc1ccc(C#N)c(C(F)(F)F)c1 [Example 8, 4-[4-(2-Amino-4-oxo-4H-thiazol-5-ylidenemethyl)-2-methoxy-phenoxy]-2-trifluoromethyl-benzonitrile]
9 | 6.44 | 6.30 | COc1cc(/C=C2\SC(N)=NC2=O)ccc1Oc1ccc(C(F)(F)F)cc1[N+](=O)[O-] [Example 7, 2-Amino-5-[3-methoxy-4-(2-nitro-4-trifluoromethyl-phenoxy)-benzylidene]-thiazol-4-one]
10 | 6.28 | 6.00 | COc1cc(/C=C2\SC(=O)NC2=O)ccc1Oc1ccc([N+](=O)[O-])c(C(F)(F)F)c1 [Example 11, 5-[3-Methoxy-4-(4-nitro-3-trifluoromethyl-phenoxy)-benzylidene]-thiazolidine-2,4-dione]
